Results published in article PMC7072973, “Differential Signaling Profiles of MC4R Mutations with Three Different Ligands” (International Journal of Molecular Sciences, 2020).
“Also recorded” adds a separate entry of the source. Where two headings read alike, the source gives them in different places.

Columns and labels:
MC4R V103I [1] = molecular target: T1, MC4R V103I (Homo sapiens, UniProt P32245, V103I)
Target sequence in this assay (P32245 whole entry V103I): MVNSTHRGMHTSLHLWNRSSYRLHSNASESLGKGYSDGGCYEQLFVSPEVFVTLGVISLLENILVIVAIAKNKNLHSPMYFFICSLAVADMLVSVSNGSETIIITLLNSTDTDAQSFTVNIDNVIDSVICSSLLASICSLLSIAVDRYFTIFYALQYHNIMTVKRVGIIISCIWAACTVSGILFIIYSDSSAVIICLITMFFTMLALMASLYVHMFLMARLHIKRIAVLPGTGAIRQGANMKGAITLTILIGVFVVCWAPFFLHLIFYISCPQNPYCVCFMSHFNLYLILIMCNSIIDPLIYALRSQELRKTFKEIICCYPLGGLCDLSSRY
Protocol: (§5) Therefore, in addition to cAMP measurements to assess GS activation in the absence and presence of 100 nM AgRP, we measured Gi/o activation via determination of second messenger (cAMP) modulation by adenylyl cyclase (AC) in the absence or presence of pertussis toxin (PTX) pretreatment. In the presence of PTX, which locks the Gαi/o subunit in its GDP-bound inactivated state, the G protein is no longer able to inhibit the AC to form cAMP [48]. Although this is an indirect way of measuring the contributions from Gi/o signaling to the total amount of intracellular cAMP, we will refer to these measurements as Gi/o coupling in order to simplify the results part.
(§6) GS and Gi coupling to the MC4R were determined using the AlphaScreen™ assay (Perkin Elmer Life Science, Boston, MA, USA) performed according to the manufacturer’s protocol and described elsewhere [68]. […] Determination of Gi coupling was investigated by pretreatment with 50 µg/mL PTX 18 h before stimulation. […]
(§7) The determination of cAMP using the AlphaScreen™ assay is a competitive immune assay based on antibody-coupled acceptor beads that bind cAMP and streptavidin-coupled donor beads that bind to a biotinylated cAMP probe. […] Absolute amounts of cAMP are determined by the simultaneous measurement of a cAMP standard. The plate reader (Mithras 940 LB)) was used for the read out, at 565 nm. […]

MC4R V103I [2] = molecular target: T1, MC4R V103I; remark: listed apart in the source
Target sequence in this assay (P32245 whole entry V103I): as above
Protocol: (§8) Activation of PLC, RhoA and ERK1/2 phosphorylation was determined using luciferase-based reporter gene assays that utilize responsive elements in the promotor region of the gene encoding a firefly luciferase. For PLC activation, the NFAT responsive element (NFAT-luc, pGL4.33) was co-transfected with the receptor mutations. Similarly, co-transfections with SRF responsive element (SRF-luc, pGL4.33, Promega, Mannheim, Germany) for RhoA activation and Serum response element (SRE-luc, pGL3.4, Promega, Mannheim, Germany) for ERK1/2 phosphorylation were performed. […]
(§9) Measurement of luciferase activity provided information about the activation of the respective second messenger by transferring 10 µL lysate into a white opaque 96-well plate. Injection of 40 µL firefly luciferase substrate (Promega, Mannheim, Germany) and measurement of luminescence was performed with a plate reader (Mithras LB 940).
(§10) Concentration–response curves of each experiment were analyzed by fitting a non-linear regression model for sigmoidal response in Graph Pad Prism 6 (GraphPad Software Inc., La Jolla, CA, USA) to determine potency (EC50 values). […] Emax is the maximal response (efficiency) of the mutation, which was determined from the concentration–response curves. […]

MC4R WT [3] = molecular target: T2, MC4R WT (Homo sapiens, UniProt P32245); assay: β-arrestin2 recruitment (NanoBRET), MC4R WT; format: cell-based; design: expressed in transfected cells; host or cells: HEK293; details: HEK293, β-arrestin2, 5 min, mean ± SEM, 3 to 7 experiments in triplicates
Protocol: (§1) A total of 16–20 h after transfection in 6-well plates, cells were detached, and cell number was adjusted to 2.2 × 10^5 cells/mL in Opti-MEM without phenol red supplemented with 4% FBS. Cells were divided into two pools, adding either the acceptor NanoBRET™ Ligand 618 (1 µL/mL cells of 0.1 mM solution) or the same amount of DMSO as background control. After reseeding 90 µL cell suspension/well into a white 96-well plates, incubation was continued for 4–6 h.
(§2) For measurements, 25 µL of NanoBRET™ substrate was injected using a plate reader (Mithras LB 940). Donor and acceptor emission were measured at 460 nm and 610 nm, respectively, and the BRET ratio was calculated by dividing acceptor emission by donor emission:(1) BRET ratio =emissionacceptor/emissiondonor
(§3) The ratio was corrected for background bleed through by subtracting of the background ratio (no acceptor DMSO control) and conversion to milliBRET units (mBU):(2) corrected BRET ratio [mBU]=(BRET ratiosample−BRET rationo acceptor control)×1000
(§4) To calculate the difference between stimulated and basal interaction, the NET BRET was acquired using the formula:(3) NET BRET = corrected BRET ratiostim− corrected BRET ratiobasal
Target sequence in this assay (P32245 whole entry): as the sequence (P32245 whole entry V103I) above, with I103V counted along it
Target sequence in this assay (P29067 whole entry partner): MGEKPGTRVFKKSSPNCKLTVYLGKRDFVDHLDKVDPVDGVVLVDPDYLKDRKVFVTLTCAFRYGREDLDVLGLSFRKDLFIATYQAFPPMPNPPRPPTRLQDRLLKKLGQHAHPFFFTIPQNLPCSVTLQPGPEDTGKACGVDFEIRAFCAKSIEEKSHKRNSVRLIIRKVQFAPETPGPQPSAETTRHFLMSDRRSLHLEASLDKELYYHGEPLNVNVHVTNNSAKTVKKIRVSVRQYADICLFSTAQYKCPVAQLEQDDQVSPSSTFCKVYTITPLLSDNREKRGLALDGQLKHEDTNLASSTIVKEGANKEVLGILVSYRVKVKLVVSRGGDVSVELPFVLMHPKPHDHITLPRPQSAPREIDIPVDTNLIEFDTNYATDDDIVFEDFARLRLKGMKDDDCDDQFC

MC4R WT [4] = molecular target: T2, MC4R WT; details: HEK293, SRE-luc, 6 h, mean ± SEM, 3 to 7 experiments in triplicates
Target sequence in this assay (P32245 whole entry): as the sequence (P32245 whole entry V103I) above, with I103V counted along it
Protocol: as §8, §9, §10

MC4R WT [5] = molecular target: T2, MC4R WT; details: HEK293, cAMP, 40 min, IBMX, mean ± SEM, 3 to 7 experiments in triplicates
Target sequence in this assay (P32245 whole entry): as the sequence (P32245 whole entry V103I) above, with I103V counted along it
Protocol: (§11) GS and Gi coupling to the MC4R were determined using the AlphaScreen™ assay (Perkin Elmer Life Science, Boston, MA, USA) performed according to the manufacturer’s protocol and described elsewhere [68]. […] Determination of Gi coupling was investigated by pretreatment with 50 µg/mL PTX 18 h before stimulation. All stimulations were performed at 37 °C and 5% CO2. Incubation was stopped by removing the compounds and lysing the cells in lysis buffer containing IBMX for 1.5–2 h at 4 °C on a shaking platform.
(§12) The determination of cAMP using the AlphaScreen™ assay is a competitive immune assay based on antibody-coupled acceptor beads that bind cAMP and streptavidin-coupled donor beads that bind to a biotinylated cAMP probe. Excitement of the donor bead leads to the conversion of ambient oxygen to a singlet state. […] Absolute amounts of cAMP are determined by the simultaneous measurement of a cAMP standard. The plate reader (Mithras 940 LB)) was used for the read out, at 565 nm.
as §10

MC4R H158R [6] = molecular target: T3, MC4R H158R (Homo sapiens, UniProt P32245, H158R)
Target sequence in this assay (P32245 whole entry H158R): as the sequence (P32245 whole entry V103I) above, with I103V, H158R counted along it
Protocol: as §8, §9, §10

MC4R H158R [7] = molecular target: T3, MC4R H158R; remark: listed apart in the source
Target sequence in this assay (P32245 whole entry H158R): as the sequence (P32245 whole entry V103I) above, with I103V, H158R counted along it
Protocol: as §5, §6, §7

MC4R H158R [8] = molecular target: T3, MC4R H158R; format: cell-based; design: expressed in transfected cells; host or cells: HEK293
Protocol: as §1, §2, §3, §4
Target sequence in this assay (P32245 whole entry H158R): as the sequence (P32245 whole entry V103I) above, with I103V, H158R counted along it
Target sequence in this assay (P29067 whole entry partner): as the sequence (P29067 whole entry partner) above

MC4R V103I [9] = molecular target: T1, MC4R V103I; format: cell-based; design: expressed in transfected cells; host or cells: HEK293; details: HEK293, β-arrestin2, 5 min, mean ± SEM, 3 to 7 experiments in triplicates
Protocol: as §1, §2, §3, §4
Target sequence in this assay (P32245 whole entry V103I): as the sequence (P32245 whole entry V103I) above
Target sequence in this assay (P29067 whole entry partner): as the sequence (P29067 whole entry partner) above

MC4R WT [10] = molecular target: T2, MC4R WT; details: HEK293, SRF-luc, 6 h, mean ± SEM, 3 to 7 experiments in triplicates
Target sequence in this assay (P32245 whole entry): as the sequence (P32245 whole entry V103I) above, with I103V counted along it
Protocol: as §8, §9, §10

MC4R V103I [11] = molecular target: T1, MC4R V103I; remark: listed apart in the source
Target sequence in this assay (P32245 whole entry V103I): as the sequence (P32245 whole entry V103I) above
Protocol: as §11
The determination of cAMP using the AlphaScreen™ assay is a competitive immune assay based on antibody-coupled acceptor beads that bind cAMP and streptavidin-coupled donor beads that bind to a biotinylated cAMP probe. Excitement of the donor bead leads to the conversion of ambient oxygen to a singlet state. In close proximity of donor and acceptor beads through binding the biotinylated probe, the acceptor reacts with the singlet molecule and emits light. Absolute amounts of cAMP are determined by the simultaneous measurement of a cAMP standard. The plate reader (Mithras 940 LB)) was used for the read out, at 565 nm.
Concentration–response curves of each experiment were analyzed by fitting a non-linear regression model for sigmoidal response in Graph Pad Prism 6 (GraphPad Software Inc., La Jolla, CA, USA) to determine potency (EC50 values). For mutations that had EC50 values outside of concentration tested, it was set to the appropriate highest concentration tested. Signaling bias analysis was performed as described by Kenakin (2017) [69] using the formula (4) Δlog(Emax/EC50) = log(Emaxtest/EC50 test)−log(Emaxref/EC50 ref) with test referring to the tested receptor mutation and ref being reference (MC4R WT). Emax is the maximal response (efficiency) of the mutation, which was determined from the concentration–response curves. Where no Emax could be determined from incomplete curves (e.g., in case of AgRP co-stimulation), the response of the maximal concentration was substituted as has been described by Winpenny et al. (2016) [70].

MC4R WT [12] = molecular target: T2, MC4R WT; details: HEK293, PTX-sensitive cAMP, mean ± SEM, 3 to 7 experiments in triplicates
Target sequence in this assay (P32245 whole entry): as the sequence (P32245 whole entry V103I) above, with I103V counted along it
Protocol: as §5, §6, §7

MC4R H158R [13] = molecular target: T3, MC4R H158R; remark: listed apart in the source
Target sequence in this assay (P32245 whole entry H158R): as the sequence (P32245 whole entry V103I) above, with I103V, H158R counted along it
Protocol: as §8, §9, §10

MC4R WT [14] = molecular target: T2, MC4R WT; details: HEK293, NFAT-luc, 6 h, mean ± SEM, 3 to 7 experiments in triplicates
Target sequence in this assay (P32245 whole entry): as the sequence (P32245 whole entry V103I) above, with I103V counted along it
Protocol: as §8, §9, §10

MC4R H158R [15] = molecular target: T3, MC4R H158R; remark: listed apart in the source
Target sequence in this assay (P32245 whole entry H158R): as the sequence (P32245 whole entry V103I) above, with I103V, H158R counted along it
Protocol: as §11, §12, §10

MC4R V103I [16] = molecular target: T1, MC4R V103I; remark: listed apart in the source
Target sequence in this assay (P32245 whole entry V103I): as the sequence (P32245 whole entry V103I) above
Protocol: as §8, §9, §10

MC4R V103I [17] = molecular target: T1, MC4R V103I; remark: listed apart in the source
Target sequence in this assay (P32245 whole entry V103I): as above
Protocol: as §8, §9, §10

MC4R WT [18] = assay: GS signaling (cAMP) with AgRP co-stimulation, MC4R WT; format: cell-based, human
Protocol: (§13) Therefore, in addition to cAMP measurements to assess GS activation in the absence and presence of 100 nM AgRP, we measured Gi/o activation via determination of second messenger (cAMP) modulation by adenylyl cyclase (AC) in the absence or presence of pertussis toxin (PTX) pretreatment.
as §11, §12

MC4R H158R [19] = molecular target: T3, MC4R H158R; remark: listed apart in the source
Target sequence in this assay (P32245 whole entry H158R): as the sequence (P32245 whole entry V103I) above, with I103V, H158R counted along it
Protocol: as §8, §9, §10

MC4R = details: cited from earlier work
Description: The MC4R signals mainly via activation of the stimulating G protein GS, which leads to an increase in intracellular cyclic adenosine-monophosphate (cAMP). In recent years, more and more studies provided evidence that the MC4R is able to couple to a variety of signaling pathways, such as extracellular regulated kinase (ERK) activation, and to other G proteins, such as Gi/o, Gq/11 and G12/13 [10, 11, 12, 13]. These pathways might also be involved in the anorexigenic effect of the activated MC4R [14].

[20] = system: all tested MC4R mutations; assay: GS signaling (cAMP) with AgRP, all tested MC4R mutations; details: all tested MC4R mutations and ligands; Figure S1
Protocol: as §13, §11, §12

MC4R H158R [21] = details: 100 nM AgRP
MC4R V103I [22] = details: agonist α-MSH, 100 nM AgRP
MC4R V103I [23] = details: synthetic agonist MTII; cited from earlier work
[24] = HEK293, PTX-sensitive cAMP, mean ± SEM, 3 to 7 experiments in triplicates
[25] = HEK293, SRE-luc, 6 h, mean ± SEM, 3 to 7 experiments in triplicates
[26] = HEK293, NFAT-luc, 6 h, mean ± SEM, 3 to 7 experiments in triplicates
[27] = HEK293, cAMP, 40 min, IBMX, mean ± SEM, 3 to 7 experiments in triplicates
[28] = HEK293, SRF-luc, 6 h, mean ± SEM, 3 to 7 experiments in triplicates

## CSCC[C@H](NC(=O)[C@H](CCCNC(=N)N)NC(=O)[C@H](Cc1ccc(O)cc1)NC(=O)[C@@H]1CCCN1C(=O)CNC(=O)[C@H](CCC(=O)O)NC(=O)[C@H](CC(=O)O)NC(=O)[C@H](CCCCN)NC(=O)[C@H](CCCCN)NC(=O)[C@H](CCC(=O)O)NC(=O)[C@H](C)N)C(=O)N[C@@H](CCC(=O)O)C(=O)N[C@@H](Cc1c[nH]cn1)C(=O)N[C@@H](Cc1ccccc1)C(=O)N[C@@H](CCCNC(=N)N)C(=O)N[C@@H](Cc1c[nH]c2ccccc12)C(=O)NCC(=O)N[C@@H](CO)C(=O)N1CCC[C@H]1C(=O)N1CCC[C@H]1C(=O)N[C@@H](CCCCN)C(=O)N[C@@H](CC(=O)O)C(=O)O [β-MSH, β-melanocyte stimulating hormone]
MC4R V103I [1]
  Gi/o coupling compared to WT: strong positive bias towards Gi/o coupling
MC4R V103I [1]; [24]
  Emax: 16.65 fold over WT basal
MC4R V103I [2]
  ERK phosphorylation compared to WT: tendency towards an ERK signaling bias, which was not significant
MC4R V103I [2]; [25]
  Emax: 5.14 fold over WT basal
MC4R WT [3]
  Emax: 1.93 fold over WT basal
MC4R WT [4]
  Emax: 4.94 fold over WT basal
MC4R WT [5]
  Emax: 10.05 fold over WT basal
MC4R H158R [6]
  Gq/11 (PLC) activation compared to WT: increased GS and Gq/11 signaling
MC4R H158R [6]; [26]
  Emax: 10.40 fold over WT basal
MC4R H158R [7]
  Gi/o coupling compared to WT: strong bias towards Gi/o signaling
MC4R H158R [7]; [24]
  Emax: 38.55 fold over WT basal
MC4R H158R [8]
  β-arrestin2 recruitment compared to WT: WT-like activity in G12/13 and β-arrestin2 recruitment
MC4R V103I [9]
  Emax: 1.35 fold over WT basal
MC4R WT [10]
  Emax: 2.40 fold over WT basal
MC4R V103I [11]
  GS signaling compared to WT: reduced (though not significantly); also recorded: tendency towards low GS signaling
MC4R V103I [11]; [27]
  Emax: 8.69 fold over WT basal
MC4R WT [12]
  Emax: 26.86 fold over WT basal
MC4R H158R [13]
  G12/13 (RhoA) activation compared to WT: WT-like activity in G12/13 and β-arrestin2 recruitment
MC4R H158R [13]; [28]
  Emax: 2.18 fold over WT basal
MC4R WT [14]
  Emax: 6.58 fold over WT basal
MC4R H158R [15]
  GS signaling compared to WT: increased GS and Gq/11 signaling
MC4R H158R [15]; [27]
  Emax: 14.85 fold over WT basal
MC4R V103I [16]
  G12/13 (RhoA) activation compared to WT: strong positive bias towards Gi/o coupling, RhoA activation via G12/13
MC4R V103I [16]; [28]
  Emax: 2.29 fold over WT basal
MC4R V103I [17]
  Gq/11 (PLC) activation compared to WT: increased Gq/11 coupling
MC4R V103I [17]; [26]
  Emax: 14.65 fold over WT basal
MC4R WT [18]
  GS signaling in the presence of 100 nM AgRP: not as strongly affected compared to the one of α-MSH
MC4R H158R [19]
  ERK phosphorylation compared to WT: augmented ERK phosphorylation
MC4R H158R [19]; [25]
  Emax: 5.55 fold over WT basal

## Agouti-related peptide (SSRRCVRLHESCLGQQVPCCDPCATCYCRFFNAFCYCRKLGTAMNPCSRT; UniProt O00253 83-132, looked up) [AgRP]
MC4R; ref 15, 17
  mode of action at MC4R: inverse agonist
MC4R; ref 15, 18
  mode of action at MC4R: competitive antagonist
[20]
  effect of AgRP on GS signaling: decreased GS signaling for all tested MC4R mutations and ligands
MC4R H158R [21]; agonist α-MSH
  antagonistic effect of AgRP: loss-of-antagonist effect
MC4R H158R [21]; agonist β-MSH
  antagonistic effect of AgRP: loses its antagonistic effect for this mutation
MC4R V103I [22]
  antagonistic effect of AgRP: tendency towards a reduced antagonist effect of AgRP, which was, however, not significant; also recorded: tendency towards a decreased antagonistic effect
MC4R V103I [23]
  AgRP antagonistic potency: modestly reduced AgRP antagonistic potency
